Tests used:
Experiment in all cases: relative viability (nuclei count vs DMSO), 5 days (fraction); higher = more cells survive
Midostaurin + Trametinib = compound: CO[C@@H]1[C@H](N(C)C(=O)c2ccccc2)C[C@H]2O[C@]1(C)n1c3ccccc3c3c4c(c5c6ccccc6n2c5c31)C(=O)NC4 [Midostaurin] + CC(=O)Nc1cccc(-n2c(=O)n(C3CC3)c(=O)c3c(Nc4ccc(I)cc4F)n(C)c(=O)c(C)c32)c1 [Trametinib] (partner 0.02 µM)
Method in brief: (§1)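 Lung cancer cell lines, seeded in 1536-well plates, were treated the following day by pin tool with a single drug or with five library-drug doses (not always all listed) in √10 steps on top of a fixed anchor-drug dose. Cells were fixed and nuclei stained in one step after 5 days, and nuclei were counted. Relative viability is the nuclei count for treated wells divided by that for vehicle wells, reported as medians of duplicate plates.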

Midostaurin + Navitoclax = compound: CO[C@@H]1[C@H](N(C)C(=O)c2ccccc2)C[C@H]2O[C@]1(C)n1c3ccccc3c3c4c(c5c6ccccc6n2c5c31)C(=O)NC4 [Midostaurin] + CC1(C)CCC(c2ccc(Cl)cc2)=C(CN2CCN(c3ccc(C(=O)NS(=O)(=O)c4ccc(N[C@H](CCN5CCOCC5)CSc5ccccc5)c(S(=O)(=O)C(F)(F)F)c4)cc3)CC2)C1 [Navitoclax] (partner 0.5 µM)
Method in brief: as §1

Midostaurin + Foretinib = compound: CO[C@@H]1[C@H](N(C)C(=O)c2ccccc2)C[C@H]2O[C@]1(C)n1c3ccccc3c3c4c(c5c6ccccc6n2c5c31)C(=O)NC4 [Midostaurin] + COc1cc2c(Oc3ccc(NC(=O)C4(C(=O)Nc5ccc(F)cc5)CC4)cc3F)ccnc2cc1OCCCN1CCOCC1 [Foretinib] (partner 0.25 µM)
Method in brief: as §1

Midostaurin + OSI-027 = compound: CO[C@@H]1[C@H](N(C)C(=O)c2ccccc2)C[C@H]2O[C@]1(C)n1c3ccccc3c3c4c(c5c6ccccc6n2c5c31)C(=O)NC4 [Midostaurin] + COc1cccc2cc(-c3nc([C@H]4CC[C@H](C(=O)O)CC4)n4ncnc(N)c34)[nH]c12 [OSI-027] (partner 0.5 µM)
Method in brief: as §1

Midostaurin + Tozasertib = compound: CO[C@@H]1[C@H](N(C)C(=O)c2ccccc2)C[C@H]2O[C@]1(C)n1c3ccccc3c3c4c(c5c6ccccc6n2c5c31)C(=O)NC4 [Midostaurin] + Cc1cc(Nc2cc(N3CCN(C)CC3)nc(Sc3ccc(NC(=O)C4CC4)cc3)n2)n[nH]1 [Tozasertib] (partner 0.1 µM)
Method in brief: as §1

With UMC-11 the relative viability (Midostaurin + Trametinib; first compound 0.01 µM) was 0.698, the relative viability (Midostaurin + Trametinib; first compound 0.03162 µM) was 0.656 and the relative viability (Midostaurin + Trametinib; first compound 0.1 µM) was 0.691. The relative viability (Midostaurin + Trametinib; first compound 0.3162 µM) was 0.562, the relative viability (Midostaurin + Navitoclax; first compound 0.01 µM) was 0.32 and the relative viability (Midostaurin + Navitoclax; first compound 0.03162 µM) was 0.346. For the same cell line, the relative viability (Midostaurin + Navitoclax; first compound 0.1 µM) was 0.241, the relative viability (Midostaurin + Navitoclax; first compound 0.3162 µM) was 0.177 and the relative viability (Midostaurin + Foretinib; first compound 0.01 µM) was 1.08. The relative viability (Midostaurin + Foretinib; first compound 0.03162 µM) was 0.946, the relative viability (Midostaurin + Foretinib; first compound 0.1 µM) was 0.868 and the relative viability (Midostaurin + Foretinib; first compound 0.3162 µM) was 0.234. It also gave a relative viability (Midostaurin + OSI-027; first compound 0.01 µM) of 0.473, a relative viability (Midostaurin + OSI-027; first compound 0.03162 µM) of 0.463 and a relative viability (Midostaurin + OSI-027; first compound 0.1 µM) of 0.536. The relative viability (Midostaurin + OSI-027; first compound 0.3162 µM) was 0.293, the relative viability (Midostaurin + Tozasertib; first compound 0.01 µM) was 0.208 and the relative viability (Midostaurin + Tozasertib; first compound 0.03162 µM) was 0.18. For the same cell line, the relative viability (Midostaurin + Tozasertib; first compound 0.1 µM) was 0.196 and the relative viability (Midostaurin + Tozasertib; first compound 0.3162 µM) was 0.174.
